“And” between values parts separate entries of the source, which are not always exact repeats. Equal entries are not always repeated. Where two headings read alike, the source gives them in different places.
Experiments:
[1] = 100 μM 1 in HEPES, 250 mM, pH 7, 24 °C, no organic co-solvent; cited from earlier work
[2] = HEPES buffer, 50 mM, pH 7, 24 °C, no organic co-solvent; cited from earlier work
Decomposition = type: physicochemical; details: for kobs (apparent rate constant for decomposition): no thiol, compound 70 μM, MOPS 250 mM, pH 7, MeCN 25% v/v, 24 °C
[3] = Reaction with the biological thiol glutathione; type: physicochemical; details: for kobs (pseudo-first-order rate constant, + thiol): compound 70 μM, 24 °C; for kobs (pseudo-first-order rate constant, + thiol) / second-order rate constant for reaction with GSH: GSH 700 μM, MOPS 300 mM, pH 7, MeCN 25% v/v; for second-order rate constant for reaction with GSH: estimated from kobs

| Compound | rate constant (decomposition) [1] | t1/2 (decomposition) [1] | second-order rate constant for reaction with GSH [2] | kobs (apparent rate constant for decomposition) (Decomposition) | times more stable than 5 against decomposition in aqueous buffer (Decomposition; relative to 5) | times more stable than 6 against decomposition in aqueous buffer (Decomposition; relative to 6) | kobs (pseudo-first-order rate constant, + thiol) [3] | second-order rate constant for reaction with GSH [3] | times less reactive toward GSH than compound 5 ([3]; relative to 5) | kobs (decomposition) (Decomposition; 300 mM MOPS, pH 7.0) | kobs (decomposition) (Decomposition; 500 mM MOPS) | kobs (decomposition) (Decomposition; pH 6.5, 300 mM MOPS) | kobs (decomposition) (Decomposition; pH 7.5, 300 mM MOPS) | stability relative to the cis isomer in aqueous buffered solution (Decomposition; trans isomer 6 versus cis isomer 5) |
| --- | --- | --- | --- | --- | --- | --- | --- | --- | --- | --- | --- | --- | --- | --- |
| C/C1=C\[C@@H](O)C(=O)/C=C/C=C\c2csc(n2)[C@@H](C)NC(=O)C[C@@]2(CC1)[S+]([O-])SC(=O)[C@]2(C)O (some centres unmarked) [Compound 1, Leinamycin, reference compound] | 0.00072 min⁻¹ | 16.1 h | 624 M⁻¹ min⁻¹ | 0.408 ± 0.001 × 10^−3 min^-1 | approximately 30 times | ~15 times | 6.67 ± 0.01 × 10^−2 min^-1 | 95 M⁻¹ min⁻¹ | 3.6 times |  |  |  |  |  |
| CC1(C)[S+]([O-])SC(=O)[C@@]1(C)O (some centres unmarked) [Compound 5, 4-hydroxy-4,5,5-trimethyl-1,2-dithiolan-3-one-1-oxide] |  |  |  | 13.2 ± 0.01 × 10^−3 min^-1 |  |  | 24.3 ± 0.1 × 10^−2 min^-1 | 344 M⁻¹ min⁻¹ |  |  |  |  |  |  |
| CC1(C)[S+]([O-])SC(=O)[C@]1(C)O (some centres unmarked) [Compound 6, 4-hydroxy-4,5,5-trimethyl-1,2-dithiolan-3-one-1-oxide] |  |  |  | 6.2 ± 0.6 × 10^−3 min^-1 |  |  | 18.3 ± 0.2 × 10^−2 min^-1 | 261 M⁻¹ min⁻¹ |  | 1.5 ± 0.2 × 10^−2 min^-1 and 1.5 × 10^−2 min^-1 | 1.9 ± 0.2 × 10^−2 min^-1 | 0.0087 min⁻¹ | 0.047 min⁻¹ | approximately two times more stable |
